This note sets out measurements from ChEMBL document CHEMBL4673260, “Pyridine alkaloids with activity in the central nervous system” (Bioorg Med Chem, 2020).

Assay [1] addresses T1, Neuronal acetylcholine receptor; alpha4/beta2 (Homo sapiens, UniProt P17787+P43681). The assay can be described thus: Potency index, ratio of nicotine I-max to compound I-max for human brain alpha4beta2 nAChR expressed in CHO cells. The assay is classed as cell-based.
Assay [2] has as its target T1, Neuronal acetylcholine receptor; alpha4/beta2. The assay can be described thus: Potency index, ratio of nicotine EC50 to compound EC50 for human brain alpha4beta2 nAChR expressed in CHO cells. The assay is classed as cell-based.
For assay [3] the target is unchanged. The experiment in a line: Agonist activity at human brain alpha4beta2 nAChR expressed in CHO cells assessed as maximal receptor response by patch clamp electrophysiological assay relative to control. The format is cell-based.
Assay [4] has the same target.
Description: Agonist activity at human brain alpha4beta2 nAChR expressed in CHO cells by patch clamp electrophysiological assay
Assay [5] in a line: Selectivity ratio of Ki for horse serum BuChE to Ki for human erythrocyte acetylcholinesterase.
The target in assay [6] is Cholinesterase (Equus caballus, UniProt P81908). The assay can be described thus: Inhibition of horse serum BuChE by Ellman's colorimetric method.
The target in assay [7] is T2, Acetylcholinesterase (Homo sapiens, UniProt P22303). The assay can be described thus: Inhibition of human erythrocyte acetylcholinesterase using acetylthiocholine as substrate by Ellman's colorimetric method.
Assay [8] is filed under the species Rattus norvegicus. The experiment in a line: Displacement of [3H]-Cytisine from rat cerebral cortex nAChR at 10 uM by radioligand binding assay relative to control. The note with it: filed as antagonist.
Assay [9] addresses T3, Muscarinic acetylcholine receptor M1 (Rattus norvegicus) (UniProt P08482).
T3 sequence (whole entry): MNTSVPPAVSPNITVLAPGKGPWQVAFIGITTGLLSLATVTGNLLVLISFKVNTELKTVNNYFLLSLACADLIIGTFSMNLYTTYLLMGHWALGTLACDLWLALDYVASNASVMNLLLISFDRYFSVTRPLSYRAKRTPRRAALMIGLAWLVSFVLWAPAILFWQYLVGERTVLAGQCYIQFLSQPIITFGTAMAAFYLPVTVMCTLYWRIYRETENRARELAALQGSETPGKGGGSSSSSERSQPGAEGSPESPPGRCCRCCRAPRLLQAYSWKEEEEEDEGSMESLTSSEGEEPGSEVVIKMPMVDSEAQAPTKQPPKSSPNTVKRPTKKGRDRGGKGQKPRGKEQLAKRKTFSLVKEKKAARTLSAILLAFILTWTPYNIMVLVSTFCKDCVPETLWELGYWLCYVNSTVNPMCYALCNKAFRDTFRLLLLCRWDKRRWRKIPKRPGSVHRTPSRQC
The experiment in a line: Displacement of [3H]-Pirenzepine from rat cerebral cortex Muscarinic M1 receptor at 10 uM by radioligand binding assay relative to control. The note with it: filed as antagonist.

The test system of the next assay is Torpedo. The experiment in a line: Agonist activity at Torpedo alpha1beta1deltagamma nACHR. The note with it: filed as agonist.
Assay [10] addresses Neuronal acetylcholine receptor; alpha3/beta4 (Homo sapiens) (UniProt P30926+P32297). The experiment in a line: Agonist activity at human alpha3beta4 nAChR expressed in mouse/rat hybrid F11 cells assessed as increase in rubidium-86 efflux. The format is cell-based. The note with it: filed as agonist.
Assay [11] deals with T1, Neuronal acetylcholine receptor; alpha4/beta2. The experiment in a line: Agonist activity at human alpha4beta2 nAChR expressed in human K177 cell membrane assessed as increase in 86-rubidium efflux incubated for 5 mins by gamma counting method. The note with it: K177cell line, filed as agonist. The assay is classed as cell membranes.
For assay [12], the target named is T3, Muscarinic acetylcholine receptor M1 (Rattus norvegicus). The note with it: filed as antagonist, time 40.0 min.
The target is the same in assay [13]. The note with it: filed as antagonist, time 60.0 min.
The target in assay [14] is Neuronal acetylcholine receptor subunit alpha-7 (Homo sapiens, UniProt P36544). The conditions noted are these: filed as agonist.
Description: Agonist activity at human alpha7 nAChR (unknown origin)
Assay [15] is filed under the species Rattus norvegicus. The assay can be described thus: Antagonist activity at nAChR in Sprague-Dawley rat striatum assessed as inhibition of nicotine-evoked [3H] dopamine release at 100 nM relative to control. The format is tissue-based.
Assay [16] addresses Neuronal acetylcholine receptor; alpha4/beta2 (Rattus norvegicus, UniProt P09483+P12390). The experiment in a line: Inhbition of [3H] nicotine binding to rat brain alpha4beta2 nAChR by Cheng-Prusoff equation analysis.
Assay [17] addresses T2, Acetylcholinesterase. The experiment in a line: Inhibition of human erythrocyte acetylcholinesterase using acetylthiocholine as substrate preincubated for 20 mins followed by substrate addition and measured every 30 secs for 1 hr by Ellman's method.
In assay [18] the target is T1, Neuronal acetylcholine receptor; alpha4/beta2. The experiment in a line: Agonist activity at human brain alpha4beta2 nAChR expressed in Xenopus laevis oocytes assessed as peak response relative to acetylcholine response. The format is cell-based. The conditions noted are these: Oocyte.
For assay [19], the target named is Cholinesterase (Homo sapiens, UniProt P06276). The assay can be described thus: Inhibition of BuChE (unknown origin).
For assay [20], the target named is T2, Acetylcholinesterase.
Assay [21] has as its system PC-12. The experiment in a line: Induction of neurite outgrowth in rat PC-12 cells at 3.3 uM incubated for 24 hrs by phase contrast microscopic analysis relative to control. The format is functional.
The test system of assay [22] is PC-12. The experiment in a line: Induction of neurite outgrowth in rat PC-12 cells at 10 uM incubated for 24 hrs by phase contrast microscopic analysis relative to control. The format is functional.
For assay [23], the system named is PC-12. The experiment in a line: Induction of neurite outgrowth in rat PC-12 cells at 33 uM incubated for 24 hrs by phase contrast microscopic analysis relative to control. The format is functional.

SMILES strings stand for the structures.

T2 sequence (P22303 whole entry): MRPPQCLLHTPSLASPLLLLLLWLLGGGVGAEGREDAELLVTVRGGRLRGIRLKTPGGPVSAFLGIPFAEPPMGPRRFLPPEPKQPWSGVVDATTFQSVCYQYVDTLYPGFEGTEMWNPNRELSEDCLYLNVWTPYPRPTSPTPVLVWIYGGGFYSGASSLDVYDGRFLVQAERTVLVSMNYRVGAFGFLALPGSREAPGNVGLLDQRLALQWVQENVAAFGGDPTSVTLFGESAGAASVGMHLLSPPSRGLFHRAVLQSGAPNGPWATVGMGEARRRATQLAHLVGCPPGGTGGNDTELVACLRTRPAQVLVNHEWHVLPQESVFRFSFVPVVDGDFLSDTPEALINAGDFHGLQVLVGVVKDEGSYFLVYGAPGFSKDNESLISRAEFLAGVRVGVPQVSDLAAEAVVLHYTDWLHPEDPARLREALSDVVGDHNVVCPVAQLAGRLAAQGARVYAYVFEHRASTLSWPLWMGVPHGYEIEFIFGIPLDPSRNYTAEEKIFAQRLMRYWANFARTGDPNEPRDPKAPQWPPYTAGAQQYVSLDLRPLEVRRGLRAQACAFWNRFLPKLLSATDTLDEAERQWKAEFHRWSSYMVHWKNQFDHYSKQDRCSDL
T1 sequence (P17787 whole entry): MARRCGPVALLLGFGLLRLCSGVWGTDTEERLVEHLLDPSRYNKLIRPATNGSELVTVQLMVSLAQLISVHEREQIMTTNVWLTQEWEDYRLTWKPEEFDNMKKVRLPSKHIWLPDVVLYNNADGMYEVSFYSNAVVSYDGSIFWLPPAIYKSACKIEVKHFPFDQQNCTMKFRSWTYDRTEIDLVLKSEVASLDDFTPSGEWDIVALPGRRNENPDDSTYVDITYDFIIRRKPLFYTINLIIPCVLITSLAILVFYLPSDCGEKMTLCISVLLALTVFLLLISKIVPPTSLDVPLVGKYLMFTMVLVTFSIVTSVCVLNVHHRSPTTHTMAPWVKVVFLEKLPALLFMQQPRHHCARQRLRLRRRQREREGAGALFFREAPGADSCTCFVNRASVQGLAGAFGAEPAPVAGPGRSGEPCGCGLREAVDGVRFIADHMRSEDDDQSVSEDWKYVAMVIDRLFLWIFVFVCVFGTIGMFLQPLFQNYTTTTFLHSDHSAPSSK
T1 sequence (P43681 whole entry): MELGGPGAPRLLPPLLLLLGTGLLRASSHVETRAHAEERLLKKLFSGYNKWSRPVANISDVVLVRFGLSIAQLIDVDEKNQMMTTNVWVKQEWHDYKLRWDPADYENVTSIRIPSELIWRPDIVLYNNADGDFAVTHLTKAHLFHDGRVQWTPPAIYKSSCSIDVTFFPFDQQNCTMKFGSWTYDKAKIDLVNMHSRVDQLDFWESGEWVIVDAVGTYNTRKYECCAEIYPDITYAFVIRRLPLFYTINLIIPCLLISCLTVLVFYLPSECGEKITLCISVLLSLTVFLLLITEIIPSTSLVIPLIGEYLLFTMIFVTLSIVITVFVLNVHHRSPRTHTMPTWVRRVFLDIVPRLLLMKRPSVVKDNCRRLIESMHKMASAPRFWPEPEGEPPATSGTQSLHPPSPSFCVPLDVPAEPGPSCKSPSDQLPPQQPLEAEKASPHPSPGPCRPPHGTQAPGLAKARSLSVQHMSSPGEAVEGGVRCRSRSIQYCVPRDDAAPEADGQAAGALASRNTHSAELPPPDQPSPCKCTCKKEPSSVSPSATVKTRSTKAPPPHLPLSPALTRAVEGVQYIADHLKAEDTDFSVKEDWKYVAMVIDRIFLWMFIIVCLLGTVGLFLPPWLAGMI
Sequence of Cholinesterase (Equus caballus, UniProt P81908) (P81908 whole entry): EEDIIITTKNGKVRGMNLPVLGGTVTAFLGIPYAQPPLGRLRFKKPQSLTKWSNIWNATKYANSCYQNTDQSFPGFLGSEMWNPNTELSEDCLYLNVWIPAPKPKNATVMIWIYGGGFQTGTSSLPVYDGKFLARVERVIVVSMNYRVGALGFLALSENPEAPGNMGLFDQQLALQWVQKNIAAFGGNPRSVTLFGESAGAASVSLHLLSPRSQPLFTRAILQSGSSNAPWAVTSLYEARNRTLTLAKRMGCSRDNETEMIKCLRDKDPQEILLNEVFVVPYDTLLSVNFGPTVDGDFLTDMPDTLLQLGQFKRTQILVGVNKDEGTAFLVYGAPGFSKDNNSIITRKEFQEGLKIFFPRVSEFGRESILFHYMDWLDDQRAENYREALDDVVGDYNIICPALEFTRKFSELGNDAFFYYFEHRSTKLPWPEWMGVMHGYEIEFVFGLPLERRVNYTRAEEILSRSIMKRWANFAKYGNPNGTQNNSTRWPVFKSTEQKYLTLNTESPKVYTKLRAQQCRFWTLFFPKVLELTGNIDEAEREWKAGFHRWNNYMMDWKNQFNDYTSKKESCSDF
Sequence of Neuronal acetylcholine receptor subunit alpha-7 (P36544 whole entry): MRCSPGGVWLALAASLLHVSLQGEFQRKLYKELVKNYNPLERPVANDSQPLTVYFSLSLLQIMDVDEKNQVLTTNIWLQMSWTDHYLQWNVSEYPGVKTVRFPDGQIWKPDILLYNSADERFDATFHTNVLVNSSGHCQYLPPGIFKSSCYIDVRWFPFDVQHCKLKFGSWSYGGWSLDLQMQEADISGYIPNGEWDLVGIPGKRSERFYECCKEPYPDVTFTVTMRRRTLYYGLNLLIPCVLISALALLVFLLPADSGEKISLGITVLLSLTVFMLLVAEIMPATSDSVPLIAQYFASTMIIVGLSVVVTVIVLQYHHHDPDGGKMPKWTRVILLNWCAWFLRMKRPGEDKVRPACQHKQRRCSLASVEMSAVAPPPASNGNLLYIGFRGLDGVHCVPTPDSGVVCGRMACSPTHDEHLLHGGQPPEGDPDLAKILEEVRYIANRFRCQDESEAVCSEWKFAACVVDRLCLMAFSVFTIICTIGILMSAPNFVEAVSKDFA
Sequence of Neuronal acetylcholine receptor; alpha4/beta2 (Rattus norvegicus, UniProt P09483+P12390) (P09483 whole entry): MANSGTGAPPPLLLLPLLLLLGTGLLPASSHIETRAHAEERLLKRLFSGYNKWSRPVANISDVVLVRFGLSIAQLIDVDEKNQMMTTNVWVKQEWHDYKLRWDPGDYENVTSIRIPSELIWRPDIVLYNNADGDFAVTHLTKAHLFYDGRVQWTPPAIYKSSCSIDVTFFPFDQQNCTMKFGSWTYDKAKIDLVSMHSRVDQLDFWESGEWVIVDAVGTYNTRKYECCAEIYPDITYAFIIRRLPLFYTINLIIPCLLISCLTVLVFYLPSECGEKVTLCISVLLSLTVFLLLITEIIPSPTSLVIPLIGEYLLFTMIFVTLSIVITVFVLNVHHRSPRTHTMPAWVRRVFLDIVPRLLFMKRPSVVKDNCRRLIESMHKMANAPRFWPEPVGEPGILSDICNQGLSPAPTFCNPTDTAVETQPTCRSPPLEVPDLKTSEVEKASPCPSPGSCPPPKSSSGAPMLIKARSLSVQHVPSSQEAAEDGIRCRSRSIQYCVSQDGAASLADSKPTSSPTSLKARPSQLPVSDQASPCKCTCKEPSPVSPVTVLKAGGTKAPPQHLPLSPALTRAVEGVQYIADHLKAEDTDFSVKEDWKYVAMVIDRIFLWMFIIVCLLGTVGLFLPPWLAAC
Sequence of Neuronal acetylcholine receptor; alpha4/beta2 (Rattus norvegicus, UniProt P09483+P12390) (P12390 whole entry): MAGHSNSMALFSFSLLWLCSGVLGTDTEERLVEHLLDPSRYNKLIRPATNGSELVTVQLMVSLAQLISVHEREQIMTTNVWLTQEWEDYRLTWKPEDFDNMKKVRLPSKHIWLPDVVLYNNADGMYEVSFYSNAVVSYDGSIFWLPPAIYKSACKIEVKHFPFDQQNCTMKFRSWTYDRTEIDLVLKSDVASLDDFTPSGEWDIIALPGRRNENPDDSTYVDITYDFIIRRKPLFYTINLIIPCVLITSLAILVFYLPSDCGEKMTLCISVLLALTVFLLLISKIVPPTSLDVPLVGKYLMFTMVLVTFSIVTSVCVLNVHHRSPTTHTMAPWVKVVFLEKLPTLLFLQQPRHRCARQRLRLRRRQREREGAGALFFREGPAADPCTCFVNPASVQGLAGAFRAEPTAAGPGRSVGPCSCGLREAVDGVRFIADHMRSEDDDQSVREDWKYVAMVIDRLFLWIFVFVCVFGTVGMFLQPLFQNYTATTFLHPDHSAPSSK
Sequence of Cholinesterase (Homo sapiens, UniProt P06276) (P06276 whole entry): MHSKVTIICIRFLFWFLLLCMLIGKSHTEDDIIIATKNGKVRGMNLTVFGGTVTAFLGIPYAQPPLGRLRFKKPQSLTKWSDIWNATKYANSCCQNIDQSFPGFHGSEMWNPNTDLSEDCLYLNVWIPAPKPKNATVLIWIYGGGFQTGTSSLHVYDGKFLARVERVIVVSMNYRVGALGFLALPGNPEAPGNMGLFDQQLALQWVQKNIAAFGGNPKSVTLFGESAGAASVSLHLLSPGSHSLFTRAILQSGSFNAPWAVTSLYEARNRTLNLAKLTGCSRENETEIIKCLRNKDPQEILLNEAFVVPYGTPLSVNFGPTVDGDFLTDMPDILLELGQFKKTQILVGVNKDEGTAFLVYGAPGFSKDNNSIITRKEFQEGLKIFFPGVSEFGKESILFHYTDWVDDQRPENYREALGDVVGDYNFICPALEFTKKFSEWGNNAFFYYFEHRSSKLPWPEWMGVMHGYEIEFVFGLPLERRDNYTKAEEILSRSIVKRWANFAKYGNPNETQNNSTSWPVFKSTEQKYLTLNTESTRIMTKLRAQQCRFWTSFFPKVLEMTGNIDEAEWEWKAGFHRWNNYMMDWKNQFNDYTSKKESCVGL

For the compound `CN1CC=CC[C@H]1c1cccnc1`, the Ratio in assay [1] stood at 6. Besides, the Ratio EC50 in assay [2] came to 8. Further, the Imax in [3] was 26%. For the same compound, in assay [4], the 50% effective concentration (EC50) came out at 6.2 µM.

With `CN1CCCC[C@H]1c1ccc(-c2cccnc2)nc1`, in [5], the Ratio Ki was found to be 8.6. In addition, the Ki was 440 µM on Cholinesterase [6] and 51 µM on Acetylcholinesterase [7].

With `Clc1ccc(C2CC3CCC2N3)cn1` (stereo in doubt; (+)), the inhibition in the assay listed under Rattus norvegicus [8] was 98%; in assay [9] it was 70%. Besides, the ED50 in the assay on Torpedo is 1.6 µM; in assay [10] it was 0.019 µM; in assay [11], 0.017 µM; in assay [14], 1.1 µM. Besides, the Kapp worked out at 1.6 µM in assay [12] and 6.9 µM in assay [13].

With `CN1CCC[C@H]1c1cncc([C@@H]2CCCN2C)c1`, the inhibition in the assay listed under Rattus norvegicus [15] was below 64%. In [16], this compound had a Ki of 1.18 µM.

In the case of `C/C=C1\C2C=C(C)CC1(NCC(=O)OC)c1ccc(=O)[nH]c1C2` (centres undefined), the IC50 at Acetylcholinesterase [17] was found to be 6.71 µM.

Take `C1=CC[C@H](c2cccnc2)NC1`: in assay [18], the Imax is 25%.

Turning to `CC1=C[C@@H]2Cc3[nH]c(=O)ccc3[C@]3(C1)NCCC[C@H]23`, the IC50 at Cholinesterase [19] is 169 µM; against Acetylcholinesterase [20], 2.57 µM.

Consider `CC[C@@H](C)C[C@@H](C)/C=C(C)/C=C/C=C/C(=O)c1c(O)c(C2(O)CCC(O)CC2)cn(O)c1=O` (some centres undefined), for which the Activity was determined as 30% in the assay with PC-12 [21], 70% with PC-12 [22] and 80% in the assay with PC-12 [23].
